Assay results reported in patent US20250059198A1, “BRM DEGRADING COMPOUNDS AND ASSOCIATED METHODS OF USE” (Arvinas Operations, Inc., priority 2021, published 2025).

Molecular target: T1, BRM (Homo sapiens, UniProt P51531)
T1 construct: Western Blot Screen of BRM Degradation in SW1573 Cells; endogenous in cells; host or cells: SW1573 cells
Assay: BRM degradation (Dmax and DC50) in SW1573 cells, Western blot screen / In-Cell Western screen
Format: cell-based
Settings: overnight (18-20 hours) treatment; for Dmax: read-out: Dmax (%)** (% degraded)
In short: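 Dmax and DC50 were derived from BRM levels normalised to an alpha-tubulin control, measured by chemiluminescent Western blotting of lysates or by PFA-fixed In-Cell Western on LI-COR Odyssey. SW1573 cells received compound overnight (18–20 h, 0.1% DMSO final).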

T1 sequence (P51531 whole entry): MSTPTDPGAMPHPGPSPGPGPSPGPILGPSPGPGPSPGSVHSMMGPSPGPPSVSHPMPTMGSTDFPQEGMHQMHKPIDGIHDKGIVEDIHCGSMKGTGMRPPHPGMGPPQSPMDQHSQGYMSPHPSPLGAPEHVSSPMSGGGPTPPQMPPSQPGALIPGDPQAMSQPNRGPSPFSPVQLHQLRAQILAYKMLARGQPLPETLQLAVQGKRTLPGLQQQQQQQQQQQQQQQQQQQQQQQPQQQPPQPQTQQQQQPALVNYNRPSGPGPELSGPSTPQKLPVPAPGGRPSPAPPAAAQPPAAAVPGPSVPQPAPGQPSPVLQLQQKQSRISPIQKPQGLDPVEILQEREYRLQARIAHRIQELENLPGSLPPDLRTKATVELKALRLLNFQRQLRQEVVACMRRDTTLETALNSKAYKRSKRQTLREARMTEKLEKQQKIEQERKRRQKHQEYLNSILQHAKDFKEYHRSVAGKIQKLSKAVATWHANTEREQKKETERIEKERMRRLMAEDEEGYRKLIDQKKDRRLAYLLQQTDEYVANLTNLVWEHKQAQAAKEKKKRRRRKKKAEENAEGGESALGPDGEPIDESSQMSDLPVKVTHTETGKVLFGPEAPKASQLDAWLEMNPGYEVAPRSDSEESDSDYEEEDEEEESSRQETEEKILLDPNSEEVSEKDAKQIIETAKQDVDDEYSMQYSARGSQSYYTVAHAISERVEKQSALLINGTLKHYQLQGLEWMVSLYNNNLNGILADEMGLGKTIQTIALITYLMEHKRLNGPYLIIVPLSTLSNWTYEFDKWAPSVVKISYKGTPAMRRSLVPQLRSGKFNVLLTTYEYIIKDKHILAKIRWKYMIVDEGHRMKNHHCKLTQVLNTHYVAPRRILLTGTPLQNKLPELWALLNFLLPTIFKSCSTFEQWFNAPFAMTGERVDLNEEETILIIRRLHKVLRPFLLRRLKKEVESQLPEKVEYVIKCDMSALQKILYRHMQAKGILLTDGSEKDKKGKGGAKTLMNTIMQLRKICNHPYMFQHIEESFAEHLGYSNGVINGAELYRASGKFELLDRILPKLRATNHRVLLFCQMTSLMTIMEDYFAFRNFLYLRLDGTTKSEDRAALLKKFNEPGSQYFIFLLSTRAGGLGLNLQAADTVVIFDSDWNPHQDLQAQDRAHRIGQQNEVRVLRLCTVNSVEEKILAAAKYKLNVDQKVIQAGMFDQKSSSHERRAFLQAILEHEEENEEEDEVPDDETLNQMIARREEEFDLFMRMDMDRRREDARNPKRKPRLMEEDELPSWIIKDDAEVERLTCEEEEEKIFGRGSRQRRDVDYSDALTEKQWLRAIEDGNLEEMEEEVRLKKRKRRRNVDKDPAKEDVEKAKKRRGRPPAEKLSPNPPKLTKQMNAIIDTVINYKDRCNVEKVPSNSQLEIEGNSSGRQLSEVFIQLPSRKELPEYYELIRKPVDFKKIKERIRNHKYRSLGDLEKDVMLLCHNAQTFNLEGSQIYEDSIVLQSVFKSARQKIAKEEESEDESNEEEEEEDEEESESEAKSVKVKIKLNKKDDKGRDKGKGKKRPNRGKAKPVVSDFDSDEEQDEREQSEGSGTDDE

Structure (SMILES) | DC50 | Dmax
Cc1ncsc1-c1ccc([C@H](C)NC(=O)[C@@H]2C[C@@H](O)CN2C(=O)[C@@H](c2cc(N3CCC(CN4CC5(CC(N6CCO[C@H](CN7C8CCC7CN(c7cc(-c9ccccc9O)nnc7N)C8)C6)C5)C4)CC3)no2)C(C)C)cc1 [Compound 141, (2S,4R)-1-[(2R)-2-{3-[4-({6-[(2S)-2-({3-[3-amino-6-(2-hydroxyphenyl)pyridazin-4-yl]-3,8-diazabicyclo[3.2.1]octan-8-yl}methyl)morpholin-4-yl]-2-azaspiro[3.3]heptan-2-yl}methyl)piperidin-1-yl]-1,2-oxazol-5-yl}-3-methylbutanoyl]-4-hydroxy-N-[(1S)-1-[4-(4-methyl-1,3-thiazol-5-yl)phenyl]ethyl]pyrrolidine-2-carboxamide] | < 2.5 nM | > 75%
CC(C)[C@H](C(=O)N1C[C@H](O)C[C@H]1C(=O)N[C@@H](C)c1ccc(C#N)cc1)c1cc(N2CCC(C(=O)N3CCC(O[C@H]4C[C@H](Oc5cc(N6C7CCC6CN(c6cc(-c8ccccc8O)nnc6N)C7)ccn5)C4)CC3)CC2)no1 [Compound 137, (2S,4R)-N-[(1S)-1-(4-cyanophenyl)ethyl]-4-hydroxy-1-[(2S)-3-methyl-2-[3-(4-{4-[(1r,3r)-3-[(4-{3-[3-amino-6-(2-hydroxyphenyl)pyridazin-4-yl]-3,8-diazabicyclo[3.2.1]octan-8-yl}pyridin-2-yl)oxy]cyclobutoxy]piperidine-1-carbonyl}piperidin-1-yl)-1,2-oxazol-5-yl]butanoyl]pyrrolidine-2-carboxamide] | ≥ 30 nM | –
CC(C)[C@@H](C(=O)N1C[C@H](O)C[C@H]1C(=O)N[C@@H](C)c1ccc(C#N)cc1)c1cc(N2CCC(CN3CCC(O[C@H]4C[C@H](Oc5cc(N6C7CCC6CN(c6cc(-c8ccccc8O)nnc6N)CC7)ccn5)C4)CC3)CC2)no1 (stereo partly drawn) [Compound 14, (2S,4R)-N-[(1S)-1-(4-cyanophenyl)ethyl]-4-hydroxy-1-[(2R)-3-methyl-2-{3-[4-({4-[(1r,3r)-3-[(4-{3-[3-amino-6-(2-hydroxyphenyl)pyridazin-4-yl]-3,9-diazabicyclo[4.2.1]nonan-9-yl}pyridin-2-yl)oxy]cyclobutoxy]piperidin-1-yl}methyl)piperidin-1-yl]-1,2-oxazol-5-yl}butanoyl]pyrrolidine-2-carboxamide] | < 2.5 nM | > 75%
CC(C)[C@H](C(=O)N1C[C@H](O)C[C@H]1C(=O)N[C@@H](C)c1ccc(-c2ccnn2C)cc1)c1cc(N2CCC(CN3CCC(O[C@H]4C[C@H](OC(=O)N5CCN(c6cc(-c7ccccc7O)nnc6N)CC5)C4)CC3)CC2)no1 [Compound 114, (1r,3r)-3-({1-[(1-{5-[(2S)-1-[(2S,4R)-4-hydroxy-2-{[(1S)-1-[4-(1-methyl-1H-pyrazol-5-yl)phenyl]ethyl]carbamoyl}pyrrolidin-1-yl]-3-methyl-1-oxobutan-2-yl]-1,2-oxazol-3-yl}piperidin-4-yl)methyl]piperidin-4-yl}oxy)cyclobutyl 4-[3-amino-6-(2-hydroxyphenyl)pyridazin-4-yl]piperazine-1-carboxylate] | ≥ 30 nM | –
CC(C)[C@@H](C(=O)N1C[C@H](O)C[C@H]1C(=O)N[C@@H](C)c1ccc(C#N)cc1)c1cc(N2CCC(CN3CC[C@@H](Oc4cc(N5C6CCC5CN(c5cc(-c7ccccc7O)nnc5N)C6)ccn4)[C@@H](F)C3)CC2)no1 [Compound 157, (2S,4R)-1-[(2R)-2-[3-(4-{[(3S,4R)-4-[(4-{3-[3-amino-6-(2-hydroxyphenyl)pyridazin-4-yl]-3,8-diazabicyclo[3.2.1]octan-8-yl}pyridin-2-yl)oxy]-3-fluoropiperidin-1-yl]methyl}piperidin-1-yl)-1,2-oxazol-5-yl]-3-methylbutanoyl]-N-[(1S)-1-(4-cyanophenyl)ethyl]-4-hydroxypyrrolidine-2-carboxamide] | < 2.5 nM | > 75%
CC(C)[C@@H](C(=O)N1C[C@H](O)C[C@H]1C(=O)N[C@@H](C)c1ccc(-c2ccnn2C)cc1)c1cc(N2CCC(CN3CCC4(CC3)CC(N3CCO[C@@H](CN5C6CCC5CN(c5cc(-c7ccccc7O)nnc5N)C6)C3)C4)CC2)no1 [Compound 106, (2S,4R)-1-[(2R)-2-{3-[4-({2-[(2R)-2-({3-[3-amino-6-(2-hydroxyphenyl)pyridazin-4-yl]-3,8-diazabicyclo[3.2.1]octan-8-yl}methyl)morpholin-4-yl]-7-azaspiro[3.5]nonan-7-yl}methyl)piperidin-1-yl]-1,2-oxazol-5-yl}-3-methylbutanoyl]-4-hydroxy-N-[(1S)-1-[4-(1-methyl-1H-pyrazol-5-yl)phenyl]ethyl]pyrrolidine-2-carboxamide] | < 2.5 nM | > 75%
Cc1ncsc1-c1ccc([C@H](C)NC(=O)[C@@H]2C[C@@H](O)CN2C(=O)[C@H](c2cc(N3CCC(OC(=O)N4CCC(Oc5cc(N6C7CCC6CN(c6cc(-c8ccccc8O)nnc6N)C7)ccn5)CC4)CC3)no2)C(C)C)cc1 [Compound 131, 1-(5-((S)-1-((2S,4R)-4-hydroxy-2-(((S)-1-(4-(4-methylthiazol-5-yl)phenyl)ethyl)carbamoyl)pyrrolidin-1-yl)-3-methyl-1-oxobutan-2-yl)isoxazol-3-yl)piperidin-4-yl 4-((4-(3-(3-amino-6-(2-hydroxyphenyl)pyridazin-4-yl)-3,8-diazabicyclo[3.2.1]octan-8-yl)pyridin-2-yl)oxy)piperidine-1-carboxylate] | ≥ 30 nM | –
Cc1ncsc1-c1ccc([C@H](C)NC(=O)[C@@H]2C[C@@H](O)CN2C(=O)[C@@H](c2cc(N3CCC(CN4CCC5(CC4)CC(N4CCN(C)[C@@H](CN6C7CCC6CN(c6cc(-c8ccccc8O)nnc6N)C7)C4)C5)CC3)no2)C(C)C)cc1 [Compound 133, (2S,4R)-1-[(2R)-2-{3-[4-({2-[(3R)-3-({3-[3-amino-6-(2-hydroxyphenyl)pyridazin-4-yl]-3,8-diazabicyclo[3.2.1]octan-8-yl}methyl)-4-methylpiperazin-1-yl]-7-azaspiro[3.5]nonan-7-yl}methyl)piperidin-1-yl]-1,2-oxazol-5-yl}-3-methylbutanoyl]-4-hydroxy-N-[(1S)-1-[4-(4-methyl-1,3-thiazol-5-yl)phenyl]ethyl]pyrrolidine-2-carboxamide] | < 2.5 nM | > 75%
Cc1ncsc1-c1ccc([C@H](C)NC(=O)[C@@H]2C[C@@H](O)CN2C(=O)[C@@H](c2cc(N3CCC(CN4CCC5(CCC5N5CCO[C@H](CN6C7CCC6CN(c6cc(-c8ccccc8O)nnc6N)C7)C5)CC4)CC3)no2)C(C)C)cc1 (stereo partly drawn) [Compound 143, (2S,4R)-1-[(2R)-2-{3-[4-({1-[(2S)-2-({3-[3-amino-6-(2-hydroxyphenyl)pyridazin-4-yl]-3,8-diazabicyclo[3.2.1]octan-8-yl}methyl)morpholin-4-yl]-7-azaspiro[3.5]nonan-7-yl}methyl)piperidin-1-yl]-1,2-oxazol-5-yl}-3-methylbutanoyl]-4-hydroxy-N-[(1S)-1-[4-(4-methyl-1,3-thiazol-5-yl)phenyl]ethyl]pyrrolidine-2-carboxamide] | < 2.5 nM | > 75%
